Test results from the Kinase Knowledgebase extract (Sharma et al. 2016).

Molecular target: MAPK14 (human) (UniProt Q16539)
Assay: Assessment of MAPK14 Kinase Activity

MAPK14 (human), sequence (Q16539 whole entry, looked up): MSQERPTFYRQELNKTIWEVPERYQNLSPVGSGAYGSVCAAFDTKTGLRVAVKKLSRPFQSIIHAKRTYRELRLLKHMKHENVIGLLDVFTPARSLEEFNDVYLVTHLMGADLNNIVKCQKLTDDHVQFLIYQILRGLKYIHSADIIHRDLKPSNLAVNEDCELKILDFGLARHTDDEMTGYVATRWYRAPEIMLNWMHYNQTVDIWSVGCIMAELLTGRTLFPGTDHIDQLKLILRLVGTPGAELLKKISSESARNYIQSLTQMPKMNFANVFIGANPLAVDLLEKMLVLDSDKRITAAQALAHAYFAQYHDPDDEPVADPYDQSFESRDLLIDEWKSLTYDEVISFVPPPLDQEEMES

Row | SMILES | IC50
1 | Cc1cccc(-c2nc(-c3ccc(C(=O)O)cc3)sc2-c2ccncc2)c1 | 210 nM
2 | CC(=O)Nc1nc(-c2ccccc2Cl)c(-c2ccncc2)s1 | 260 nM
3 | CC(=O)Nc1nc(-c2cccc(F)c2)c(-c2ccncc2)s1 | 140 nM
4 | Cc1cccc(-c2nc(-c3cccc(C)c3)c(-c3ccncc3)s2)c1 | 74 nM
5 | CC(=O)Nc1nc(-c2ccccc2C)c(-c2ccncc2)s1 | 340 nM
6 | CCc1ccc(-c2nc(-c3cccc(C)c3)c(-c3cc[n+]([O-])cc3)s2)cc1 | 1700 nM
7 | COc1ccc(-c2nc(NC(C)=O)sc2-c2ccncc2)cc1 | 74 nM
8 | Cc1cccc(-c2nc(-c3ccccc3C)sc2-c2ccncc2)c1 | 69 nM
9 | COc1cccc(-c2nc(NC(C)=O)sc2-c2ccncc2)c1 | 73 nM
10 | Cc1cccc(-c2nc(-c3ccccc3)sc2-c2ccncc2)c1 | 200 nM
11 | COc1ccccc1-c1nc(NC(C)=O)sc1-c1ccncc1 | 1300 nM
12 | CC(=O)Nc1nc(-c2ccc(C)cc2)c(-c2ccncc2)s1 | 76 nM

Stronger by IC50, values ahead:

Row | IC50 | SMILES
13 | 45 nM | CC(=O)Nc1nc(-c2ccc(Cl)cc2)c(-c2ccncc2)s1
14 | 43 nM | CC(=O)Nc1nc(-c2cccc(Cl)c2)c(-c2ccncc2)s1
15 | 51 nM | CS(=O)(=O)c1ccc(-c2nc(-c3ccc(F)cc3)c(-c3ccncc3)s2)cc1
16 | 15 nM | Cc1cccc(-c2nc(-c3ccc([S+](C)[O-])cc3)sc2-c2ccncc2)c1 (centres undefined)
17 | 5.3 nM | Cc1cccc(-c2nc(-c3ccc(O)cc3)sc2-c2ccncc2)c1
18 | 41 nM | Cc1ccc(-c2nc(-c3cccc(C)c3)c(-c3ccncc3)s2)cc1
19 | 48 nM | CC(=O)N(C)c1nc(-c2cccc(C)c2)c(-c2ccncc2)s1
20 | 8.9 nM | CC(=O)Nc1nc(-c2cccc(C)c2)c(-c2ccncc2)s1
21 | 27 nM | Cc1cccc(-c2nc(C)sc2-c2ccncc2)c1
22 | 7.3 nM | Cc1cccc(-c2nc(N)sc2-c2ccncc2)c1
23 | 22 nM | CSc1ccc(-c2nc(-c3cccc(C)c3)c(-c3ccncc3)s2)cc1
24 | 31 nM | Cc1cccc(-c2nc(C(C)(C)C)sc2-c2ccncc2)c1
